# Assay results taken from patent US12351574B2, “Selective ligands for modulation of GIRK channels” (Northeastern University, priority 2018, dated 2025).
# System: BLA neurons (GIRK currents)
# Experiment: whole-cell patch-clamp in acute brain slices, basolateral amygdala (BLA) neurons
# Type: cell-based, rat
# Conditions: for current response of BLA neurons (in words): −50 mV
# Experimental: Electrophysiological recordings from brain slices containing basolateral amygdala (BLA) neurons: Electrophysiology was performed using 150-200 g male Sprague-Dawley rats (Harlan/Envigo, Indianapolis, IN). Rats were group housed in plastic cages in standard housing conditions with ad libitum access to food and water with 12:12 light/dark cycle (lights on at 07:00 h). All experiments were conducted in accordance with the Guide for the Care and Use of Laboratory Animals (Institute for Laboratory Animal Research, The National Academies Press) and the guidelines of the IUPUI Institutional Animal Care and Use Committee. Rats were anesthetized with isoflurane and immediately decapitated. Brains were then rapidly removed, placed in ice-cold oxygenated artificial cerebrospinal fluid solution (ACSF) and coronal slices ([…]) were prepared containing the amygdala. Slices were incubated at 31° C. for 30 min and then returned to room temperature until recording. [ACSF solution in mM: 130 NaCl; 3.5 KCl; 1.1 KH2PO4; 1.3 MgCl2; 2.5 CaCl2; 30 NaHCO3; 10 glucose, 315 mOsm, 7.4 pH]. Cells were identified for recording at 40× magnification using Scientifica Slicescope microscope under DIC illumination (Scientifica, Uckfield, UK). ACSF was warmed to 30° C. and perfused at a rate of 2-3 ml/min during recordings. Compounds were added to ACSF at desired concentrations. Whole-cell patch-clamp recordings were obtained using standard techniques. Borosilicate glass electrodes (WPI, Sarasota, FL) (resistance 3-6 MΩ) were prepared and used for both recording and baclofen application. [Recording internal solution in mM: 140 K-gluconate; 2 KCl; 3 MgCl2; 10 HEPES; 5 Phosphocreatinine; 2 K-ATP; 0.2 Na-GTP, 290 mOsm, 7.4 pH]. In voltage-clamp mode, the cell was adjusted to −50 mV at the beginning of all experiments and 5 min stable baseline was established before treatment. Picospritzer II (Parker Hannifin, Hollis, NH) was utilized for local application of 100 μM GABA-B agonist baclofen in ACSF to activate GIRKs. Baseline and baclofen-induced currents were averaged from three responses per cell and analyzed using ClampFit software (Molecular Devices, San Jose, CA). […] Several control cells were subjected to baclofen at 2 min intervals for 30 min and consistent responses were observed, thus ruling out time-dependent effects.
# The inventors employed whole-cell patch-clamp recording in acute brain slices to examine the effect of GAT1508. The inventors utilized brain slices that included the basolateral amygdala (BLA), a limbic structure that has been extensively described to coordinate the acquisition and expression of fear memories. […] Next, the inventors examined the response of BLA neurons to baclofen, a GABAB-receptor agonist that induces GIRK-mediated potassium currents. […]
structure (smiles),measurement,setting,value
"Cc1cc(NC(=O)Nc2ccc(Br)s2)n(-c2ccccc2)n1 [GAT1508, 1-(5-bromothiophen-2-yl)-3-(3-methyl-1-phenyl-1H-pyrazol-5-yl)urea]",current response of BLA neurons (in words),10 μM perfusion,did not produce responses
same,current response of BLA neurons (in words),30 μM perfusion,produced significant outward current
same,effect on baclofen-induced current in BLA neurons (in words),"10 min perfusion of 10 μM, 100 μM baclofen puff",significantly potentiated baclofen-induced current
